Measurements as given in patent publication US12115165B2, “Use of reboxetine to treat narcolepsy” (AXSOME THERAPEUTICS, INC., priority 2018, dated 2024).
Values joined by “and” are separate entries in the source; they are usually repeats but may differ in a detail not shown here. Equal values may be shown once.

Columns and labels:
[1] = tested on: patient diagnosed as suffering from narcolepsy with cataplexy; test: Single-patient examples: reboxetine 5 mg at 8 am and 5 mg at 1 pm for three weeks in narcolepsy with cataplexy; format: in vivo, human
Description: (§1) A person is diagnosed as suffering from narcolepsy with cataplexy. They are given reboxetine and instructed to take 5 mg of reboxetine at 8 am and 5 mg of reboxetine at 1 pm for three weeks. The patient is evaluated prior to treatment, and weekly to determine the MWT score, the number of cataplexy attacks, the PGI-C score, the HAM-D score, the ESS score, the NSAQ score, and the ability to concentrate on the NSAQ. After one week of treatment, the number of cataplexy attacks have decreased by 10-30%.
as §1, with “30-60%.” for “10-30%.”
as §1, with “60-100%.” for “10-30%.”
as §1, with “ESS score has” for “number of cataplexy attacks have”
as §1, with “ESS score has” for “number of cataplexy attacks have”, “30-60%.” for “10-30%.”
as §1, with “ESS score has” for “number of cataplexy attacks have”, “60-100%.” for “10-30%.”
as §1, with “MWT score has” for “number of cataplexy attacks have”
as §1, with “MWT score has” for “number of cataplexy attacks have”, “30-60%. […]” for “10-30%.”

[2] = human patients; without controlled release coating; cited from earlier work
[3] = tested on: patients with a diagnosis of narcolepsy with cataplexy; test: Phase 2, double-blind, randomized, placebo-controlled, crossover, multicenter trial of reboxetine in patients with narcolepsy; format: in vivo, human
Description: A Phase 2, double-blind, randomized, placebo-controlled, crossover, multicenter trial of reboxetine was carried out in patients with narcolepsy. A total of 21 patients with a diagnosis of narcolepsy with cataplexy were treated for 2 weeks with reboxetine or with placebo, followed by a crossover to the other treatment after a 1-week down-titration and washout period. Reboxetine was administered orally twice daily, with a total daily dose of 8 mg for Week 1 which was escalated to 10 mg for Week 2. Patients were randomized in a 1:1 ratio either to treatment with reboxetine followed by placebo (sequence 1), or to treatment with placebo followed by reboxetine (sequence 2). The average number of cataplexy attacks at baseline was 30. Key assessments were made daily using an electronic diary. The prespecified primary endpoint was the change in the weekly number of cataplexy attacks, averaged over the 2-week treatment period (overall treatment effect). Secondary endpoints included changes in the number of inadvertent naps, cognition, and Epworth Sleepiness Scale. Cognition was assessed using the Ability to Concentrate item of the Narcolepsy Symptom Assessment Questionnaire, a patient reported outcome measure. This item is rated on 5-point scale (1=very good to 5=very poor). All analyses were conducted on an intent-to-treat basis.

For `CCOc1ccccc1OC(c1ccccc1)C1CNCCO1` (centres unmarked) [reboxetine], the “decrease in ESS score” value ([1]; after one week of treatment) was 10-30% and 30-60% and 60-100%, the “decrease in MWT score” value ([1]; after one week of treatment) was 10-30% and 30-60% and 60-100% and the “decrease in number of cataplexy attacks” value ([1]; after one week of treatment) was 10-30% and 30-60% and 60-100%. The “decrease in ESS score” value ([1]; after three weeks of treatment) was 10-30% and 30-60% and 60-100%, the “decrease in HAM-D score” value ([1]; after three weeks of treatment) was 10-30% and 30-60% and 60-100% and the “decrease in MWT score” value ([1]; after three weeks of treatment) was 10-30% and 30-60% and 60-100%. For the same molecule, the “decrease in number of cataplexy attacks” value ([1]; after three weeks of treatment) was 10-30% and 30-60% and 60-100%, the “time to reach a maximum plasma concentration” value [2] was 2 to 4 h and the “patients with an ability to concentrate that was good to very good (Ability to Concentrate item of the NSAQ)” value ([3]; Week 1, p=0.007 vs placebo) was 38.1%. For the same molecule, the “mean reduction from baseline in cataplexy attacks” value ([3]; Week 2) was 48.7%, the “mean reduction of cataplexy attacks per week” value ([3]; Week 2, baseline average 30 attacks, p=0.002 vs placebo) was 14.6 cataplexy attacks per week and the “mean reduction from baseline in the average weekly number of inadvertent naps” value ([3]; Week 2, p<0.001 vs placebo, FIG. 5) was 31.8%. The “proportion of patients achieving a 50% or greater reduction in the weekly number of cataplexy attacks” value ([3]; Week 2, p=0.003 vs placebo, FIG. 2) was 76.2%, the “proportion of patients achieving a 75% or greater reduction in the weekly number of cataplexy attacks” value ([3]; Week 2, p=0.018 vs placebo, FIG. 3) was 42.9% and the “mean reduction from baseline in cataplexy attacks” value ([3]; after 1-week treatment) was 43.3%. The “mean reduction of cataplexy attacks” value ([3]; after 1-week treatment, p<0.001 vs placebo) was 13.0 cataplexy attacks, the “patients with reductions in hypnagogic hallucinations” value ([3]; as compared to placebo, FIG. 9) was “greater proportion of patients with reductions” and the “patients with reductions in sleep paralysis episodes” value ([3]; as compared to placebo, FIG. 9) was “greater proportion of patients with reductions”. For the same molecule, the “patients with an ability to concentrate that was good to very good (Ability to Concentrate item of the NSAQ)” value ([3]; end of the 2-week treatment period, 0% at baseline) was 42.9%, the “discontinuations due to adverse events” value ([3]; human, in vivo) was “no discontinuations due to adverse events” and the “most commonly reported adverse events” value ([3]; human, in vivo) was “anxiety, constipation, and insomnia”. For the same molecule, the safety and tolerability ([3]; human, in vivo) was “safe and well tolerated”, the serious adverse events ([3]; human, in vivo) was “no serious adverse events” and the “reduction in the Epworth Sleepiness Scale (ESS) score from baseline” value ([3]; p=0.003 vs placebo, FIG. 4) was 6.0. The “patients reporting improved sleep quality” value ([3]; p=0.007 vs placebo, FIG. 9) was 45.0%, the “patients with 50% or greater reduction in inadvertent naps” value ([3]; p=0.036 vs placebo, FIG. 6) was 38.1% and the “patients reporting a reduction in the number of awakenings at night” value ([3]; p=0.044 vs placebo, FIG. 9) was 30.0%. For the same molecule, the “overall percentage of patients experiencing adverse events” value ([3]; placebo 40.0%) was 42.9% and the “reduction from baseline in the mean weekly number of cataplexy attacks, averaged for the 2-week treatment period (overall treatment effect), primary endpoint” value ([3]; vs placebo, p<0.001, 8 mg/day Week 1, 10 mg/day Week 2, oral twice daily, FIG. 1) was “highly statistically significant reduction”.
